Tests used:
[1] = biological target: HRAS wild-type protein (Homo sapiens, UniProt P01112); experiment: Binding to HRAS by surface plasmon resonance (SPR), KD and KD ratio to KRAS
In short: (§1)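 GDP-loaded biotinylated Avi-tag RAS proteins (E. coli-expressed) captured on a Biotin CAPture chip at ~100–300 RU; single-cycle kinetics at 30°C, 100 µL/min, 75 s injections of rising compound concentrations. HBS pH 7.4 running buffer with 1 mM DTT, 10 mM MgCl2, 10 µM GDP, 4% DMSO. KD from 1:1 binding fit.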

[2] = test system: human lung cancer strain NCI-H441; type: cell-based
In short: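 Readout: […] after the ATP-based reagent. Compound: serial dilutions in dimethyl sulfoxide.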

[3] = biological target: GDP-bound NRAS wild-type protein (Homo sapiens, UniProt P01111); experiment: Binding to NRAS by surface plasmon resonance (SPR), KD and KD ratio to KRAS
GDP-bound NRAS wild-type protein, sequence (P01111 whole entry): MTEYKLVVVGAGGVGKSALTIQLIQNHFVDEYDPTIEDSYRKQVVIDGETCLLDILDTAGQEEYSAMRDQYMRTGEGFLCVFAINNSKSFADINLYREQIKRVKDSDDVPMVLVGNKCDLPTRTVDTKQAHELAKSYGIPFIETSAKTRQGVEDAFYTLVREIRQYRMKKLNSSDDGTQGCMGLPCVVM
In short: as §1

[4] = ratio of the KD value with respect to HRAS wild-type protein to the KD value with respect to KRAS
[5] = ratio of the KD value with respect to GDP-bound NRAS wild-type protein to the KD value with respect to KRAS
[6] = ratio of KD value for HRAS wild-type protein to KD value for KRAS (SPR)
[7] = ratio of KD value for GDP-bound NRAS wild-type protein to KD value for KRAS (SPR)

HRAS wild-type protein, sequence (P01112 whole entry): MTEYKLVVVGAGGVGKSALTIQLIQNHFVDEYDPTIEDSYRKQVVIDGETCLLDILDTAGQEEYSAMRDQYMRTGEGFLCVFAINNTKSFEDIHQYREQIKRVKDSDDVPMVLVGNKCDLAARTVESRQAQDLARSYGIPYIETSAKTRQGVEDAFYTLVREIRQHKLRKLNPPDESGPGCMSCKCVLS

SMILES	HRAS /KRAS [1, 4]	IC50 [2] [nM]	NRAS /KRAS [3, 5]	HRAS /KRAS [1, 6]	NRAS /KRAS [3, 7]	HRAS /KRAS ([1]; ratio of KD with respect to HRAS wild-type protein to KD with respect to KRAS)	NRAS /KRAS ([3]; ratio of KD with respect to GDP-bound NRAS wild-type protein to KD with respect to KRAS)
CCO[C@@H]1C[C@H]2C(=O)NC3(CC(C)(C)C3)C(=O)N(C)[C@@H](C(CC)CC)C(=O)N(C)[C@H](C(=O)N(C)C)CC(=O)N(C)[C@@H](CC)C(=O)N[C@@H]([C@@H](C)CC)C(=O)N(C)CC(=O)N(C)[C@H]3C/C=C\CCN(C3=O)[C@@H](Cc3ccc(C(F)(F)F)cc3)C(=O)N(C)CC(=O)N[C@@H](CCc3cc(F)c(C(F)(F)F)c(F)c3)C(=O)N2C1 [PP2062]	A (a compound having 10 or more and less than 20 is denoted as A)	13.7	AA (a compound having 20 or more is denoted as AA)				
CCO[C@@H]1C[C@H]2C(=O)NC3(CCCC3)C(=O)N(C)[C@@H](C3CCCC3)C(=O)N(C)[C@H](C(=O)N(C)C)CC(=O)N(C)[C@@H](CC(C)C)C(=O)N[C@@H]([C@@H](C)CC)C(=O)N(C)CC(=O)N(C)[C@H]3CCCCN(C3=O)[C@@H](Cc3ccc(C(F)(F)F)cc3)C(=O)N(C)CC(=O)N[C@@H](CCc3cc(F)c(C(F)(F)F)c(F)c3)C(=O)N2C1 [PP0579]	B (a compound having 3 or more and less than 10 is denoted as B)	2.4	C (A compound having a KD ratio of 0.1 or more and less than 3 is denoted as C)				
CCO[C@@H]1C[C@H]2C(=O)NC3(CC(C)(C)C3)C(=O)N(C)[C@@H](C3CCCCC3)C(=O)N(C)[C@H](C(=O)N(C)C)CC(=O)N(C)[C@@H](CC)C(=O)N[C@@H]([C@@H](C)CC)C(=O)N(C)CC(=O)N(C)[C@H]3C/C=C\CCN(C3=O)[C@@H](Cc3ccc(C(F)(F)F)cc3)C(=O)N(C)CC(=O)N[C@@H](CCc3cc(F)c(C(F)(F)F)c(F)c3)C(=O)N2C1 [PP1942]	A (a compound having 10 or more and less than 20 is denoted as A)	25.7	AA (a compound having 20 or more is denoted as AA)				
CCO[C@@H]1C[C@H]2C(=O)NC3(CC(C)(C)C3)C(=O)N(C)[C@@H](C3CCCC3)C(=O)N(C)[C@H](C(=O)N(C)C)CC(=O)N(C)[C@@H](CC3CC3)C(=O)N[C@@H]([C@@H](C)CC)C(=O)N(C)CC(=O)N(C)[C@H]3C/C=C\CCN(C3=O)[C@@H](Cc3ccc(C(F)(F)F)cc3)C(=O)N(C)CC(=O)N[C@@H](CCc3ccc(C(F)(F)F)c(Cl)c3)C(=O)N2C1 [PP1749]		3.3		A (a compound having 10 or more and less than 20 is denoted as A)	A (a compound having 10 or more and less than 20 is denoted as A)		
CCCN1C(=O)C[C@@H](C(=O)N(C)C)N(C)C(=O)[C@H](C2CCCC2)N(C)C(=O)C2(CCC2)NC(=O)[C@@H]2C[C@@H](OCC)CN2C(=O)[C@H](CCc2cc(F)c(C(F)(F)F)c(F)c2)NC(=O)CN(C)C(=O)[C@H](Cc2ccc(C(F)(F)F)cc2)N2CC/C=C\C[C@@H](C2=O)N(C)C(=O)CNC(=O)[C@H]([C@@H](C)CC)NC(=O)[C@@H]1CC(C)C [PP1826]		17.6		A (a compound having 10 or more and less than 20 is denoted as A)	A (a compound having 10 or more and less than 20 is denoted as A)		
CCO[C@@H]1C[C@H]2C(=O)NC3(CC(C)(C)C3)C(=O)N(C)[C@@H](C(CC)CC)C(=O)N(C)[C@H](C(=O)N3CCCC3)CC(=O)N(C)[C@@H](C)C(=O)N[C@@H]([C@@H](C)CC)C(=O)N(C)CC(=O)N(C)[C@H]3C/C=C\CCN(C3=O)[C@@H](Cc3ccc(C)cc3)C(=O)N(C)CC(=O)N[C@@H](CCc3ccc(C(F)(F)F)c(OC)c3)C(=O)N2C1 [PP2169]	A (a compound having 10 or more and less than 20 is denoted as A)	62.1	AA (a compound having 20 or more is denoted as AA)				
CCO[C@@H]1C[C@H]2C(=O)NC3(CCC3)C(=O)N(C)[C@@H](C3CCCC3)C(=O)N(C)[C@H](C(=O)N(C)CCOC)CC(=O)N(C)[C@@H](CC)C(=O)N[C@@H]([C@@H](C)CC)C(=O)N(C)CC(=O)N(C)[C@H]3C/C=C\CCN(C3=O)[C@@H](Cc3ccc(C(F)(F)F)cc3)C(=O)N(C)CC(=O)N[C@@H](CCc3cc(F)c(C(F)(F)F)c(F)c3)C(=O)N2C1 [PP1316]		13.2				A (a compound having 10 or more and less than 20 is denoted as A)	A (a compound having 10 or more and less than 20 is denoted as A)

— patent EP4603105A1, “PHARMACEUTICAL COMPOSITION CONTAINING CYCLIC COMPOUND HAVING SELECTIVE KRAS INHIBITORY EFFECT AGAINST HRAS AND NRAS” (CHUGAI SEIYAKU KABUSHIKI KAISHA, priority 2022, dated 2024)
